Results on 1 molecule are retold here after patent US7498327B2, “Indolylalkylamine metabolites as 5-hydroxytryptamine-6 ligands” (Wyeth, priority 2004, dated 2009).

Each structure is given as a SMILES string.

This assay addresses T1, human cloned 5-HT6 receptors (Homo sapiens, UniProt P50406).
T1 construct: expressed in transfected cells; host or cells: HeLa cells (membrane preparation)
Briefly: 5-HT6 binding affinity, [3H]-LSD displacement. Conditions: membranes of Hela cells expressing human cloned 5-HT6 receptors; [3H]-LSD 3.0 nM; 120 min, room temperature.

T1 sequence (P50406 whole entry): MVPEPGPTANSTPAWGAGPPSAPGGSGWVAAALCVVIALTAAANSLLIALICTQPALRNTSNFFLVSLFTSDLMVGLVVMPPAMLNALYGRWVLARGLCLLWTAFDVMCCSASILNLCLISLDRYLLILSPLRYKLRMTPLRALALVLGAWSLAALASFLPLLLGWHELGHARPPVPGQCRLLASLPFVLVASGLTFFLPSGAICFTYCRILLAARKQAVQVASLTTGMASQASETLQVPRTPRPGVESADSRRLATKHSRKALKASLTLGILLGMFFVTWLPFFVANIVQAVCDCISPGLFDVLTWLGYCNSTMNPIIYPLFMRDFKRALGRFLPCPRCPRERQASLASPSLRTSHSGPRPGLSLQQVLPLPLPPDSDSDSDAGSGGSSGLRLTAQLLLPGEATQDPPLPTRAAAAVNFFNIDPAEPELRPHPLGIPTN
Experimental: The affinity of test compounds for the serotonin 5-HT6 receptor is evaluated in the following manner. Cultured Hela cells expressing human cloned 5-HT6 receptors are harvested and centrifuged at low speed (1,000× g) for 10.0 min to remove the culture media. The harvested cells are suspended in half volume of fresh physiological phosphate buffered saline solution and recentrifuged at the same speed. This operation is repeated. The collected cells are then homogenized in ten volumes of 50 mM Tris.HCl (pH 7.4) and 0.5 mM EDTA. The homogenate is centrifuged at 40,000× g for 30.0 min and the precipitate is collected. The obtained pellet is resuspended in 10 volumes of Tris.HCl buffer and recentrifuged at the same speed. The final pellet is suspended in a small volume of Tris.HCl buffer and the tissue protein content is determined in aliquots of 10-25 μl volumes. […]
The bound complex caught on the filter disk is allowed to air dry and the radioactivity is measured in a Packard TopCount® equipped with six photomultiplier detectors, after the addition of 40.0 μl Microscint®-20 scintillant to each shallow well. The unifilter plate is heat-sealed and counted in a PackardTopCount® with a tritium efficiency of 31.0%.
Binding in the presence of varying concentrations of test compound is expressed as a percentage of specific binding in the absence of test compound. […]

Broadly, the Ki is the dissociation constant of the complex between target and ligand, obtained from inhibition or displacement. In the case of `O=C(O)Cc1cn(S(=O)(=O)c2c(Cl)nc3sccn23)c2ccccc12` [Example 2, {1-[(6-Chloroimidazo[2,1-b][1,3]thiazol-5-yl)sulfonyl]-1H-indol-3-yl}acetic acid], affinity was put at a Ki of 248 nM.
